Assay results published in ChEMBL document CHEMBL1201862, “PubChem BioAssay data set” (2004).
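Five concentrations, 48 hours, 96-well plates. GI50 marks 50% less growth.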 Activity calls are given as the source filed them. Rule as the data show it: active = GI50 up to about 1.1 µM and inactive = higher.

Columns and labels:
Assay in all cases: growth of human tumour cells (NCI), 48 h
SF-539 = system: SF-539
MCF7 = system: MCF7
SN12C = system: SN12C
BT-549 = system: BT-549
ACHN = system: ACHN
UACC-257 = system: UACC-257
LOX IMVI = system: LOX IMVI
CAKI-1 = system: CAKI-1
OVCAR-8 = system: OVCAR-8
SK-OV-3 = system: SK-OV-3
PC-3 = system: PC-3
NCI-H23 = system: NCI-H23
M14 = system: M14
MDA-MB-231 = system: MDA-MB-231
CCRF-CEM = system: CCRF-CEM
OVCAR-3 = system: OVCAR-3
HT-29 = system: HT-29
K562 = system: K562
A498 = system: A498

Measured: GI50

C=C(Nc1nc2ccc(C)cc2s1)C(=O)C(CC)C(=O)C(CC)CC1C(=O)NC(=O)NC1=O (stereo unspecified)
inactive: SF-539 > 100 µM | MCF7 > 100 µM | SN12C > 100 µM | BT-549 > 100 µM | ACHN > 100 µM | UACC-257 > 100 µM | LOX IMVI > 100 µM | CAKI-1 > 100 µM | OVCAR-8 > 100 µM | SK-OV-3 > 100 µM | PC-3 > 100 µM | NCI-H23 > 100 µM | M14 > 100 µM | MDA-MB-231 > 100 µM | CCRF-CEM > 100 µM | OVCAR-3 > 100 µM

CCOC(=O)c1c(C)n(Cc2ccccc2)c2c1cc(O)c1[nH]c3c(c12)CCCC3
inactive: SF-539 1.95 µM | MCF7 2.36 µM | SN12C 5.47 µM | BT-549 11.7 µM | HT-29 13.4 µM | ACHN 11.3 µM | UACC-257 17.5 µM | LOX IMVI 4.85 µM | CAKI-1 10.6 µM | OVCAR-8 6.32 µM | SK-OV-3 10.3 µM | K562 3.33 µM | PC-3 2.43 µM | NCI-H23 10.4 µM | M14 6.52 µM | MDA-MB-231 5.35 µM | CCRF-CEM 2.37 µM | OVCAR-3 2.2 µM

CCc1nc2ccc(/N=N/N(C)C)cc2[nH]1
inactive: SN12C > 100 µM | BT-549 > 100 µM | HT-29 > 100 µM | ACHN > 100 µM | UACC-257 > 100 µM | CAKI-1 > 100 µM | OVCAR-8 > 100 µM | K562 > 100 µM | PC-3 > 100 µM | NCI-H23 > 100 µM | M14 > 100 µM | MDA-MB-231 > 100 µM | CCRF-CEM > 100 µM | OVCAR-3 > 100 µM

Cc1cc(=O)nc(S(=O)(=O)NC(=S)Nc2ccc(Br)cc2)[nH]1
inactive: SF-539 > 100 µM | SN12C > 100 µM | BT-549 > 100 µM | HT-29 > 100 µM | ACHN > 100 µM | UACC-257 > 100 µM | CAKI-1 65.6 µM | OVCAR-8 > 100 µM | SK-OV-3 > 100 µM | PC-3 > 100 µM | NCI-H23 > 100 µM | M14 > 100 µM | A498 > 100 µM | MDA-MB-231 > 100 µM | OVCAR-3 > 100 µM

CN(N)/N=N/c1[nH]cnc1[N+](=O)[O-]
inactive: SF-539 46.6 µM | SN12C 31.8 µM | BT-549 > 100 µM | HT-29 > 100 µM | ACHN > 100 µM | UACC-257 > 100 µM | LOX IMVI 39.2 µM | CAKI-1 20.8 µM | OVCAR-8 28.4 µM | SK-OV-3 > 100 µM | K562 19.6 µM | PC-3 > 100 µM | NCI-H23 > 100 µM | M14 > 100 µM | A498 > 100 µM | MDA-MB-231 21.7 µM | CCRF-CEM 5.01 µM | OVCAR-3 > 100 µM

Cc1nc2c(n1CCCl)C(=O)c1ccccc1C2=O
inactive: SF-539 31.4 µM | MCF7 18.9 µM | SN12C 30.3 µM | BT-549 20.1 µM | HT-29 15.8 µM | ACHN 28.9 µM | UACC-257 14.1 µM | OVCAR-8 17.9 µM | SK-OV-3 5.22 µM | K562 16 µM | PC-3 8.43 µM | NCI-H23 29.9 µM | M14 4.68 µM | MDA-MB-231 15.4 µM | CCRF-CEM 22.6 µM | OVCAR-3 25.4 µM

Cc1ccc(O)c(Cc2nc3ccccc3nc2-c2cccc(Br)c2)c1
inactive: SF-539 > 100 µM | MCF7 37.1 µM | SN12C > 100 µM | BT-549 > 100 µM | HT-29 > 100 µM | ACHN 55.1 µM | UACC-257 45.7 µM | LOX IMVI > 100 µM | CAKI-1 85.3 µM | OVCAR-8 > 100 µM | SK-OV-3 > 100 µM | K562 34.4 µM | PC-3 > 100 µM | NCI-H23 > 100 µM | M14 > 100 µM | MDA-MB-231 > 100 µM | CCRF-CEM 28.4 µM | OVCAR-3 > 100 µM

CC1=[N+](C)CCN1C
inactive: SF-539 > 100 µM | MCF7 > 100 µM | SN12C > 100 µM | BT-549 > 100 µM | HT-29 > 100 µM | ACHN > 100 µM | UACC-257 > 100 µM | LOX IMVI > 100 µM | CAKI-1 > 100 µM | OVCAR-8 > 100 µM | SK-OV-3 > 100 µM | K562 > 100 µM | PC-3 > 100 µM | NCI-H23 > 100 µM | M14 > 100 µM | MDA-MB-231 > 100 µM | CCRF-CEM > 100 µM | OVCAR-3 > 100 µM

O=c1nc2n3c4c(cccc4nc-2c(=O)[nH]1)CCC3
inactive: SF-539 > 100 µM | MCF7 58.3 µM | SN12C > 100 µM | BT-549 > 100 µM | HT-29 95.9 µM | ACHN > 100 µM | UACC-257 > 100 µM | LOX IMVI > 100 µM | CAKI-1 > 100 µM | OVCAR-8 > 100 µM | SK-OV-3 > 100 µM | K562 > 100 µM | PC-3 > 100 µM | NCI-H23 > 100 µM | M14 > 100 µM | MDA-MB-231 > 100 µM | CCRF-CEM > 100 µM | OVCAR-3 14 µM
